Data reported in ChEMBL document CHEMBL1201862, “PubChem BioAssay data set” (2004).
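Assay format: 96-well plates, 48-hour exposure. Abbreviation: GI50, concentration required for 50% inhibition of growth.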 Calls of active or inactive are those of the source. Rule as the data show it: active = GI50 up to about 1.1 µM and inactive = higher.

Legend:
Test in all cases: NCI anticancer screen, dose series, 48 h
MDA-MB-231 = test system: MDA-MB-231
HT-29 = test system: HT-29
NCI-H23 = test system: NCI-H23
HCC 2998 = test system: HCC 2998
HL-60 = test system: HL-60
786-0 = test system: 786-0
BT-549 = test system: BT-549
A498 = test system: A498
OVCAR-3 = test system: OVCAR-3
OVCAR-5 = test system: OVCAR-5
MDA-MB-435 = test system: MDA-MB-435
HCT-15 = test system: HCT-15
OVCAR-8 = test system: OVCAR-8
UACC-62 = test system: UACC-62
U-251 = test system: U-251
SK-MEL-2 = test system: SK-MEL-2
HOP-62 = test system: HOP-62
NCI-H522 = test system: NCI-H522
DU-145 = test system: DU-145
MDA-N = test system: MDA-N

SMILES | GI50 (MDA-MB-231) | GI50 (HT-29) | GI50 (NCI-H23) | GI50 (HCC 2998) | GI50 (HL-60) | GI50 (786-0) | GI50 (BT-549) | GI50 (A498) | GI50 (OVCAR-3) | GI50 (OVCAR-5) | GI50 (MDA-MB-435) | GI50 (HCT-15) [µM] | GI50 (OVCAR-8) | GI50 (UACC-62) | GI50 (U-251) | GI50 (SK-MEL-2) | GI50 (HOP-62) | GI50 (NCI-H522) | GI50 (DU-145) | GI50 (MDA-N)
C=C1C(=O)O[C@H]2[C@@H](O)[C@H](C)CCC[C@]3(C)O[C@H]3CC[C@@]3(C)O[C@@H]3C[C@@H]12 | 4.08 µM (inactive) | 5.66 µM (inactive) | 6.49 µM (inactive) | 4.93 µM (inactive) | 0.897 µM (active) | 5.15 µM (inactive) | 1.24 µM (inactive) | 7.33 µM (inactive) | 4.31 µM (inactive) | 6.22 µM (inactive) | 3.74 µM (inactive) | 1.29 | 6.25 µM (inactive) | 2.3 µM (inactive) | 8.57 µM (inactive) | 9.2 µM (inactive) | 7.4 µM (inactive) | 1.12 µM (inactive) | 6.52 µM (inactive) | 
NCCSCC(N)C(=O)O (configuration not stated) | > 100 µM (inactive) | 39.5 µM (inactive) | > 497 µM (inactive) | > 497 µM (inactive) | > 497 µM (inactive) | 83.4 µM (inactive) | > 100 µM (inactive) | > 497 µM (inactive) | > 64.9 µM (inactive) | > 497 µM (inactive) | 51.2 µM (inactive) | > 87.5 | > 497 µM (inactive) | > 497 µM (inactive) | > 497 µM (inactive) | > 497 µM (inactive) | > 497 µM (inactive) | > 63 µM (inactive) | > 90.6 µM (inactive) | 
O=C1C=C/C(=N\N=C(c2ccccc2)c2ccccc2)O1 | > 10 µM (inactive) | > 10 µM (inactive) | > 10 µM (inactive) | > 10 µM (inactive) | > 10 µM (inactive) | > 10 µM (inactive) |  |  |  |  | > 10 µM (inactive) | > 10 | > 10 µM (inactive) | > 10 µM (inactive) |  |  | > 10 µM (inactive) |  | > 10 µM (inactive) | > 10 µM (inactive)
CCOP(=O)(OCC)C1CC(O)CN1OC(=O)C(C)(C)C (configuration not stated) | > 100 µM (inactive) | > 100 µM (inactive) | > 100 µM (inactive) |  |  | > 100 µM (inactive) |  | > 100 µM (inactive) | > 100 µM (inactive) | > 100 µM (inactive) | > 100 µM (inactive) | > 100 | > 100 µM (inactive) | > 100 µM (inactive) | > 100 µM (inactive) | > 100 µM (inactive) | > 100 µM (inactive) |  | > 100 µM (inactive) | > 100 µM (inactive)
COC(=O)C1CCC(=O)N1C(c1cc(OC)c(OC)c(OC)c1)c1cccc2ccccc12 (configuration not stated) | > 100 µM (inactive) | 35.6 µM (inactive) |  |  | 11.7 µM (inactive) | > 100 µM (inactive) |  | > 100 µM (inactive) | > 100 µM (inactive) | > 100 µM (inactive) | 63.2 µM (inactive) | 71.1 | > 100 µM (inactive) | 45 µM (inactive) | > 100 µM (inactive) | > 100 µM (inactive) | > 100 µM (inactive) | 51.5 µM (inactive) | > 100 µM (inactive) | 60.5 µM (inactive)
C/C=C/C(C/C=C(\C)CO[Si](C)(C)C(C)(C)C)O[Si](C)(C)C(C)(C)C (configuration not stated) | > 100 µM (inactive) | > 100 µM (inactive) | > 100 µM (inactive) | > 100 µM (inactive) | > 100 µM (inactive) | > 100 µM (inactive) |  | > 100 µM (inactive) | > 100 µM (inactive) | > 100 µM (inactive) | > 100 µM (inactive) | > 100 | > 100 µM (inactive) | > 100 µM (inactive) |  | > 100 µM (inactive) | > 100 µM (inactive) | > 100 µM (inactive) | > 100 µM (inactive) | > 100 µM (inactive)
[C-]#[N+]C1(C(=O)OCC)CC1 |  | > 100 µM (inactive) | > 100 µM (inactive) | > 100 µM (inactive) | > 100 µM (inactive) | > 100 µM (inactive) |  | > 100 µM (inactive) | > 100 µM (inactive) | > 100 µM (inactive) | > 100 µM (inactive) | > 100 | > 100 µM (inactive) | > 100 µM (inactive) | > 100 µM (inactive) |  | > 100 µM (inactive) | > 100 µM (inactive) | > 100 µM (inactive) | > 100 µM (inactive)
COC(=O)C(NC(=O)C12CCC(C)(C(=O)O1)C2(C)C)c1cc(C(C)(C)C)c(O)c(C(C)(C)C)c1 (configuration not stated) | > 100 µM (inactive) | 72.9 µM (inactive) | > 100 µM (inactive) |  | 4.95 µM (inactive) | > 100 µM (inactive) | > 100 µM (inactive) | > 100 µM (inactive) | > 100 µM (inactive) | > 100 µM (inactive) | > 100 µM (inactive) | 91.2 | > 100 µM (inactive) | > 100 µM (inactive) | 73.1 µM (inactive) | > 100 µM (inactive) | > 100 µM (inactive) | > 100 µM (inactive) | > 100 µM (inactive) | 
CC(C)(C)NC1C2CCC(C)(C1O)C2(C)C (configuration not stated) | > 100 µM (inactive) | > 100 µM (inactive) | > 100 µM (inactive) | > 100 µM (inactive) |  | > 100 µM (inactive) | > 100 µM (inactive) | 2.35 µM (inactive) | > 100 µM (inactive) | > 100 µM (inactive) | > 100 µM (inactive) | > 100 | > 100 µM (inactive) | 3.67 µM (inactive) | > 100 µM (inactive) | > 100 µM (inactive) | > 100 µM (inactive) |  | > 100 µM (inactive) | 
ClCCCC1COc2ccccc2O1 (configuration not stated) |  | > 100 µM (inactive) | > 10 µM (inactive) | > 100 µM (inactive) | > 100 µM (inactive) | > 100 µM (inactive) | 23.1 µM (inactive) |  | > 100 µM (inactive) | 55.8 µM (inactive) |  | > 100 | > 100 µM (inactive) | 98.6 µM (inactive) | > 100 µM (inactive) |  | > 100 µM (inactive) | > 100 µM (inactive) | > 100 µM (inactive) | > 100 µM (inactive)
COc1cc(CNC2=NCCC2)cc(OC)c1OC |  | > 100 µM (inactive) | > 100 µM (inactive) | > 100 µM (inactive) | > 100 µM (inactive) | > 100 µM (inactive) | > 100 µM (inactive) |  | > 100 µM (inactive) | > 100 µM (inactive) |  | > 100 | > 100 µM (inactive) | > 100 µM (inactive) | 53.3 µM (inactive) |  | > 100 µM (inactive) | > 100 µM (inactive) | > 100 µM (inactive) | 34.5 µM (inactive)
N#Cc1cccc2c1Sc1ccccc1N2 | 24.5 µM (inactive) | 32.7 µM (inactive) | 21.2 µM (inactive) | 27 µM (inactive) | 27.3 µM (inactive) | 30.2 µM (inactive) | 28.4 µM (inactive) | 14.8 µM (inactive) | 57 µM (inactive) | 26.7 µM (inactive) | 27.3 µM (inactive) | 23.6 | 29.5 µM (inactive) | 27.2 µM (inactive) | 20 µM (inactive) |  |  |  | 40.6 µM (inactive) | 
O=C1C[C@@H]2C(COC(=O)c3ccccc3)N(OCc3ccccc3)C[C@@H]2O1 (some centres not stated) |  | > 100 µM (inactive) | > 100 µM (inactive) | > 100 µM (inactive) | > 100 µM (inactive) | > 100 µM (inactive) |  | > 100 µM (inactive) | > 100 µM (inactive) | > 100 µM (inactive) |  | > 100 | > 100 µM (inactive) | > 100 µM (inactive) | > 100 µM (inactive) | > 100 µM (inactive) | > 100 µM (inactive) | > 100 µM (inactive) |  | 
CS/C(=N/S(=O)(=O)c1ccc(Cl)cc1)NCCCN/C(=N\S(=O)(=O)c1ccc(Cl)cc1)SC | 6.21 µM (inactive) | 22.8 µM (inactive) |  | 22.5 µM (inactive) | 8.38 µM (inactive) | 25.2 µM (inactive) |  | 8.43 µM (inactive) | 6.93 µM (inactive) | 25.2 µM (inactive) | 9.42 µM (inactive) | 7.76 | 19.8 µM (inactive) | 16.9 µM (inactive) | 29.4 µM (inactive) | 14.2 µM (inactive) | 24.8 µM (inactive) |  | 23.6 µM (inactive) | 12.1 µM (inactive)
CCN(CC)CCC1CCCCN1CC(=O)N1c2cc(Cl)ccc2NC(=O)CC1C (configuration not stated) | > 100 µM (inactive) | > 100 µM (inactive) | > 100 µM (inactive) | > 100 µM (inactive) | > 100 µM (inactive) | > 100 µM (inactive) |  | > 100 µM (inactive) | > 100 µM (inactive) | > 100 µM (inactive) | > 100 µM (inactive) | > 100 | > 100 µM (inactive) | > 100 µM (inactive) | > 100 µM (inactive) | > 100 µM (inactive) | > 100 µM (inactive) | > 100 µM (inactive) | > 100 µM (inactive) | > 100 µM (inactive)
C=C1C(=O)O[C@H]2[C@H]3O[C@@H](C[C@@H]12)[C@](C)(O)CC[C@@H]1O[C@@]1(C)CCC[C@H]3C | 25.1 µM (inactive) | 25.6 µM (inactive) | 16.4 µM (inactive) | 25.8 µM (inactive) | 27 µM (inactive) | 11.7 µM (inactive) | 12.2 µM (inactive) | 23.6 µM (inactive) | 16.7 µM (inactive) | 36.2 µM (inactive) | 17.1 µM (inactive) | 16.9 | 15.7 µM (inactive) | 16.5 µM (inactive) | 22.4 µM (inactive) | 15.9 µM (inactive) | 78.3 µM (inactive) | 18.1 µM (inactive) | 12.6 µM (inactive) | 
